Experimental data from PubChem BioAssay AID330 (DTP/NCI, 2004).
“And” between values parts separate entries of the source, which are not always exact repeats. Equal values may be shown once. Toxic doses and inconclusive results are not listed. The calls were made as follows: active = survival T/C of 150% or more; inactive = T/C below 125% in these data.

Tested on: P388 leukemia ip, CD2F1 mice, survival T/C
Test: NCI In Vivo Anticancer Drug Screen. Data for tumor model P388 Leukemia (intraperitoneal) in CD2F1 (CDF1) mice
Conditions: endpoint: median survival time, higher = longer survival
Method in brief: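 Mice carrying the transplanted tumor received test compound or vehicle. Survival was recorded in each group, and the value is the treated-group measurement divided by that of the vehicle-treated control group.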

[1] = dose: 60.0 mg/kg/injection, schedule: Q01DX005 (ip), vehicle: saline with Tween-80
[2] = dose: 120.0 mg/kg/injection, schedule: Q01DX005 (ip), vehicle: saline with Tween-80
[3] = dose: 240.0 mg/kg/injection, schedule: Q01DX005 (ip), vehicle: saline with Tween-80
[4] = dose: 50.0 mg/kg/injection, schedule: Q01DX009 (ip), vehicle: saline with Tween-80
[5] = dose: 100.0 mg/kg/injection, schedule: Q01DX009 (ip), vehicle: saline with Tween-80
[6] = dose: 200.0 mg/kg/injection, schedule: Q01DX009 (ip), vehicle: saline with Tween-80
[7] = dose: 50.0 mg/kg/injection, schedule: Q01DX005 (ip), vehicle: saline with Tween-80
[8] = dose: 100.0 mg/kg/injection, schedule: Q01DX005 (ip), vehicle: saline with Tween-80
[9] = dose: 200.0 mg/kg/injection, schedule: Q01DX005 (ip), vehicle: saline with Tween-80
[10] = dose: 60.0 mg/kg/injection, schedule: Q01DX005 (ip), vehicle: saline
[11] = dose: 120.0 mg/kg/injection, schedule: Q01DX005 (ip), vehicle: saline
[12] = dose: 50.0 mg/kg/injection, schedule: Q01DX009 (ip), vehicle: Klucel (hydroxypropylcellulose) (HPC)
[13] = dose: 100.0 mg/kg/injection, schedule: Q01DX009 (ip), vehicle: Klucel (hydroxypropylcellulose) (HPC)
[14] = dose: 200.0 mg/kg/injection, schedule: Q01DX009 (ip), vehicle: Klucel (hydroxypropylcellulose) (HPC)
[15] = dose: 50.0 mg/kg/injection, schedule: Q01DX009 (ip), vehicle: saline
[16] = dose: 100.0 mg/kg/injection, schedule: Q01DX009 (ip), vehicle: saline
[17] = dose: 200.0 mg/kg/injection, schedule: Q01DX009 (ip), vehicle: saline
[18] = dose: 50.0 mg/kg/injection, schedule: Q01DX005 (ip), vehicle: Klucel (hydroxypropylcellulose) (HPC)
[19] = dose: 100.0 mg/kg/injection, schedule: Q01DX005 (ip), vehicle: Klucel (hydroxypropylcellulose) (HPC)
[20] = dose: 200.0 mg/kg/injection, schedule: Q01DX005 (ip), vehicle: Klucel (hydroxypropylcellulose) (HPC)
[21] = dose: 50.0 mg/kg/injection, schedule: Q01DX001 (ip), vehicle: Klucel (hydroxypropylcellulose) (HPC)
[22] = dose: 100.0 mg/kg/injection, schedule: Q01DX001 (ip), vehicle: Klucel (hydroxypropylcellulose) (HPC)
[23] = dose: 100.0 mg/kg/injection, schedule: Q04DX002 (ip), vehicle: saline

Measured: T/C

CCn1c(=O)c(Cl)c2n(C)c3ccccc3n2c1=O
inactive: [1] 97 % of control | [2] 95 % of control | [3] 94 % of control

COC(=O)C(N)Cc1cn(Cc2ccccc2)cn1 (stereo not drawn)
inactive: [4] 95 % of control | [5] 96 % of control | [6] 96 % of control

CCCCCCN(CCCCCC)c1nc(Cl)nc(NCC)n1
inactive: [7] 111 % of control | [8] 103 % of control | [9] 103 % of control

CCC1COCC1Cc1cncn1C (stereo not drawn)
inactive: [10] 100 % of control | [11] 103 % of control

Cn1c(NC(=O)C(F)(F)F)cc(=O)n(C)c1=O
inactive: [7] 102 % of control | [8] 95 % of control | [9] 101 % of control

CCN(CC)CCC(CNc1c2ccc(Cl)cc2nc2ccc(OC)cc12)c1ccccc1 (stereo not drawn)
inactive: dose: 12.5 mg/kg/injection, schedule: Q01DX005 (ip), vehicle: saline with Tween-80 98 % of control | dose: 25.0 mg/kg/injection, schedule: Q01DX005 (ip), vehicle: saline with Tween-80 100 % of control | [7] 108 % of control and 115 % of control

O=C1CSC(=S)N1N1C(=O)CSC1=S
inactive: [12] 107 % of control | [13] 102 % of control | [14] 96 % of control

N/N=C1/C(=O)N(c2ccc(S(N)(=O)=O)cc2)C(=O)C1C(=O)Nc1ccc(S(N)(=O)=O)cc1 (stereo not drawn)
inactive: [1] 114 % of control | [2] 101 % of control | [3] 106 % of control

CCn1c2ccccc2c2cc(N)c(N=Nc3ccc([N+](=O)[O-])c(OC)c3)cc21
inactive: [12] 104 % of control | [13] 104 % of control | [14] 105 % of control

CC(C)OC(=O)NC1CCC2CCCCC2C1 (stereo not drawn)
inactive: [15] 102 % of control | [16] 102 % of control | [17] 100 % of control

Cn1nc(C(N)=O)c(=O)[nH]c1=S
inactive: [7] 100 % of control | [8] 99 % of control | [9] 103 % of control

COc1ccc2c(=O)cc[nH]c2c1OC
inactive: [7] 100 % of control | [8] 94 % of control | [9] 94 % of control

CC1(C)N=C(N)N=C(N)N1c1ccc(C(N)=O)cc1
inactive: dose: 25.0 mg/kg/injection, schedule: Q01DX005 (ip), vehicle: Klucel (hydroxypropylcellulose) (HPC) 100 % of control and 101 % of control | [18] 99 % of control and 100 % of control | [19] 101 % of control and 98 % of control

CC1NC(=O)NC(=O)C1=S (stereo not drawn)
inactive: [18] 112 % of control | [19] 111 % of control | [20] 113 % of control

CC1Cc2c([nH]c3ccccc3c2=O)O1 (stereo not drawn)
inactive: [15] 93 % of control | [16] 101 % of control | [17] 100 % of control

CN1CC(C(N)=O)=CC(C(N)=O)C1 (stereo not drawn)
inactive: dose: 25.0 mg/kg/injection, schedule: Q01DX005 (ip), vehicle: saline 97 % of control | dose: 50.0 mg/kg/injection, schedule: Q01DX005 (ip), vehicle: saline 96 % of control | dose: 100.0 mg/kg/injection, schedule: Q01DX005 (ip), vehicle: saline 113 % of control | dose: 200.0 mg/kg/injection, schedule: Q01DX005 (ip), vehicle: saline 111 % of control

CCNC(=O)OCc1c(Cl)nc2n1CCS2
inactive: dose: 25.0 mg/kg/injection, schedule: Q01DX001 (ip), vehicle: Klucel (hydroxypropylcellulose) (HPC) 103 % of control | [21] 110 % of control | [22] 105 % of control

CN(C)CCSC1=Nc2ccc(Cl)cc2C(c2ccccc2Cl)N(C)C1 (stereo not drawn)
inactive: dose: 60.0 mg/kg/injection, schedule: Q01DX005 (ip), vehicle: Klucel (hydroxypropylcellulose) (HPC) 100 % of control | dose: 120.0 mg/kg/injection, schedule: Q01DX005 (ip), vehicle: Klucel (hydroxypropylcellulose) (HPC) 100 % of control

COc1ccc(CNCCNCc2ccc(OC)cc2)cc1
inactive: [21] 93 % of control | [22] 93 % of control | dose: 200.0 mg/kg/injection, schedule: Q01DX001 (ip), vehicle: Klucel (hydroxypropylcellulose) (HPC) 90 % of control

CCOC(=O)c1c[nH]c2oc(/C=N/N3CC(CN4CCOCC4)OC3=O)cc2c1=O (stereo not drawn)
inactive: dose: 50.0 mg/kg/injection, schedule: Q01DX005 (ip), vehicle: acid diluted with saline 114 % of control | dose: 100.0 mg/kg/injection, schedule: Q01DX005 (ip), vehicle: acid diluted with saline 118 % of control | [23] 113 % of control

Cc1ccc(S(=O)(=O)N(Cl)Cl)cc1
inactive: dose: 6.25 mg/kg/injection, schedule: Q01DX009 (ip), vehicle: Klucel (hydroxypropylcellulose) (HPC) 111 % of control | dose: 12.5 mg/kg/injection, schedule: Q01DX009 (ip), vehicle: Klucel (hydroxypropylcellulose) (HPC) 99 % of control | dose: 25.0 mg/kg/injection, schedule: Q01DX009 (ip), vehicle: Klucel (hydroxypropylcellulose) (HPC) 108 % of control

CC1C2Cc3ccc(O)cc3C1(C)CCN2CCC(=O)c1ccccc1 (stereo not drawn)
inactive: [18] 92 % of control | [19] 88 % of control | [20] 88 % of control

O=C(CC(=O)c1ccccc1F)Nc1ccc([N+](=O)[O-])cc1
inactive: dose: 12.5 mg/kg/injection, schedule: Q01DX009 (ip), vehicle: saline with Tween-80 100 % of control | dose: 25.0 mg/kg/injection, schedule: Q01DX009 (ip), vehicle: saline with Tween-80 100 % of control | [4] 95 % of control | dose: 100.0 mg/kg/injection, schedule: Q04DX003 (ip), vehicle: saline with Tween-80 90 % of control | dose: 200.0 mg/kg/injection, schedule: Q04DX003 (ip), vehicle: saline with Tween-80 95 % of control | dose: 400.0 mg/kg/injection, schedule: Q04DX003 (ip), vehicle: saline with Tween-80 100 % of control

COc1ccc(C2=NN(c3ccccc3)C(=O)/C2=C(/SC)N2CC2)cc1
inactive: dose: 100.0 mg/kg/injection, schedule: Q04DX003 (ip), vehicle: Klucel (hydroxypropylcellulose) (HPC) 99 % of control | dose: 200.0 mg/kg/injection, schedule: Q04DX003 (ip), vehicle: Klucel (hydroxypropylcellulose) (HPC) 91 % of control | dose: 400.0 mg/kg/injection, schedule: Q04DX003 (ip), vehicle: Klucel (hydroxypropylcellulose) (HPC) 102 % of control

Cn1c(=O)[nH]cc(F)c1=O
inactive: dose: 10.0 mg/kg/injection, schedule: Q01DX009 (ip), vehicle: saline 104 % of control | dose: 20.0 mg/kg/injection, schedule: Q01DX009 (ip), vehicle: saline 100 % of control | dose: 40.0 mg/kg/injection, schedule: Q01DX009 (ip), vehicle: saline 98 % of control

O=C1C2CCC(CC2)C1C(c1ccccc1)c1ccccc1 (stereo not drawn)
inactive: [4] 93 % of control | [5] 91 % of control | [6] 90 % of control

O=C(OCC(O)CO)c1c(Cl)c(Cl)c(Cl)c(Cl)c1-c1c2cc(I)c(=O)c(I)c-2oc2c(I)c(O)c(I)cc12 (stereo not drawn)
inactive: [10] 94 % of control | [11] 100 % of control | dose: 240.0 mg/kg/injection, schedule: Q01DX005 (ip), vehicle: saline 102 % of control

CCN(CC)CCNc1ccc(COC(=O)NC)c2sc3ccccc3c(=O)c12
inactive: dose: 1.56 mg/kg/injection, schedule: Q01DX009 (ip), vehicle: saline with Tween-80 116 % of control | dose: 3.12 mg/kg/injection, schedule: Q01DX009 (ip), vehicle: saline with Tween-80 122 % of control | dose: 6.25 mg/kg/injection, schedule: Q01DX009 (ip), vehicle: saline with Tween-80 119 % of control

O=C1CCC2C(=O)OCC12 (stereo not drawn)
inactive: dose: 50.0 mg/kg/injection, schedule: Q04DX002 (ip), vehicle: saline 99 % of control | [23] 101 % of control | dose: 200.0 mg/kg/injection, schedule: Q04DX002 (ip), vehicle: saline 94 % of control | dose: 400.0 mg/kg/injection, schedule: Q04DX002 (ip), vehicle: saline 100 % of control

CC(=O)Nc1ccc(S(=O)(=O)Nc2ccc3[nH]c(=O)oc3c2)cc1
inactive: dose: 50.0 mg/kg/injection, schedule: Q04DX002 (ip), vehicle: Klucel (hydroxypropylcellulose) (HPC) 104 % of control | dose: 100.0 mg/kg/injection, schedule: Q04DX002 (ip), vehicle: Klucel (hydroxypropylcellulose) (HPC) 97 % of control | dose: 200.0 mg/kg/injection, schedule: Q04DX002 (ip), vehicle: Klucel (hydroxypropylcellulose) (HPC) 97 % of control
